From patent US7598258B2, “Quinoline derivatives and quinazoline derivatives inhibiting autophosphorylation of macrophage colony stimulating factor receptor” (Kirin Beer Kabushiki Kaisha, priority 2002, dated 2009)

Molecular target: T1, mouse c-fms (Mus musculus, UniProt P09581)
T1 construct: Macrophage-like cell line BAC-1.2F5 which expresses c-fms as a M-CSF receptor on cell membranes; endogenous in cells; host or cells: BAC-1.2F5 mouse macrophage-like cell line
T1 sequence (P09581 20-977): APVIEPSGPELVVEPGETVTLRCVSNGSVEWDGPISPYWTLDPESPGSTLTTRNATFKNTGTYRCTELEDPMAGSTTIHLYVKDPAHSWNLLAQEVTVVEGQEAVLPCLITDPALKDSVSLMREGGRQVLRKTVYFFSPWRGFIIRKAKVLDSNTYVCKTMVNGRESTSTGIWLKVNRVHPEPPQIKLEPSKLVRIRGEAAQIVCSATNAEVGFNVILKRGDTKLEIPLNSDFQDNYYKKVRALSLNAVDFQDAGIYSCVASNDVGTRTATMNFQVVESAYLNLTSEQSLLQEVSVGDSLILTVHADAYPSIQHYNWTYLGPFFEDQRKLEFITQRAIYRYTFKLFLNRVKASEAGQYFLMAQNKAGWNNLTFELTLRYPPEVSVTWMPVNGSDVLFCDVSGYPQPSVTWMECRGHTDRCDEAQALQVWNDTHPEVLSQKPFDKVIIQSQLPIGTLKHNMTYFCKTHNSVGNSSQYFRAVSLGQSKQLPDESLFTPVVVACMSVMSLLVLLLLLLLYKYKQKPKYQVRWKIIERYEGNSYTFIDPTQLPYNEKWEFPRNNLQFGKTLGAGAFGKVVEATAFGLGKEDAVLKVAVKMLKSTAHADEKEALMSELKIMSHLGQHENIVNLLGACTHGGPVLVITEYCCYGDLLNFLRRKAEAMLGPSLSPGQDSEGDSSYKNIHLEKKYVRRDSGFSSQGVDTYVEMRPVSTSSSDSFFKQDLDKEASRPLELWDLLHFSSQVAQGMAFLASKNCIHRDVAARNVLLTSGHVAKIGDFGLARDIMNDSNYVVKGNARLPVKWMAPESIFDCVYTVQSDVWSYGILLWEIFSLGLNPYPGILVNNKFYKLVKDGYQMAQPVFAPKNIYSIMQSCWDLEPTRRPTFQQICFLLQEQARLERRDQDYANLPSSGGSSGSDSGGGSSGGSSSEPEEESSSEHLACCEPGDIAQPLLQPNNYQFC
Assay: Inhibition of c-fms autophosphorylation in macrophage-like cell line BAC-1.2F5 by M-CSF stimulation (ELISA)
Type: cell-based
Details: BAC-1.2F5 cells, human recombinant M-CSF 50 ng/ml, read-out: c-fms autophosphorylation 50% inhibitory concentration (IC50)
Summary of the method: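 BAC-1.2F5 cells serum-starved (0.1% FCS) 12 h, preincubated with compound 1 h at 37° C, then stimulated 6 min with 50 ng/ml human recombinant M-CSF. Lysates captured on anti-phosphotyrosine plates, detected with anti-c-fms antiserum and peroxidase read-out at 450 nm. IC50 from inhibition normalised between ±M-CSF controls.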

SMILES	IC50 [nM]
COc1cc2c(Oc3ccc(NC(=O)NC(C)c4ccc(F)cc4)cc3F)ccnc2cc1OCCCN1CCOCC1 (stereo not drawn) [Example 64, N-(3-Fluoro-4-{[6-methoxy-7-(3-morpholinopropoxy)-4-quinolyl]oxy}phenyl)-N′-[1-(4-fluorophenyl)ethyl]urea]	9.4
COc1cc2nccc(Oc3ccc(NC(=O)NC(C)c4nccs4)c(C(F)(F)F)c3)c2cc1OC (stereo not drawn) [Example 83, N-[4-[(6,7-Dimethoxy-4-quinolyl)oxy]-2-(trifluoromethyl)phenyl]-N′-[1-(1,3-thiazol-2-yl)ethyl]urea]	10.2
COc1cc2nccc(Oc3ccc(NC(=O)NC(C)c4ncc(C)s4)c(C(F)(F)F)c3)c2cc1OC (stereo not drawn) [Example 104, N-[4-[(6,7-Dimethoxy-4-quinolyl)oxy]-2-(trifluoromethyl)phenyl]-N′-[1-(5-methyl-1,3-thiazol-2-yl)ethyl]urea]	22
COc1cc2nccc(Oc3ccc(NC(=O)NC(C)c4nc(C)cs4)c(F)c3)c2cc1OC (stereo not drawn) [Example 88, N-{4-[(6,7-Dimethoxy-4-quinolyl)oxy]-2-fluorophenyl}-N′-[1-(4-methyl-1,3-thiazol-2-yl)ethyl]urea]	2.9
COc1cc2nccc(Oc3ccc(NC(=O)NC(C)c4nccs4)cc3)c2cc1OC (stereo not drawn) [Example 77, N-{4-[(6,7-Dimethoxy-4-quinolyl)oxy]phenyl}-N′-[1-(1,3-thiazol-2-yl)ethyl]urea]	4.7
COc1cc2c(Oc3ccc(NC(=O)NC(C)c4ccc(F)c(F)c4)c(F)c3)ccnc2cc1OCCCN1CCOCC1 (stereo not drawn) [Example 68, N-[1-(3,4-Difluorophenyl)ethyl]-N′-(2-fluoro-4-{[6-methoxy-7-(3-morpholinopropoxy)-4-quinolyl]oxy}phenyl)urea]	9.8
COc1cc2nccc(Oc3ccc(NC(=O)NC(C)c4ncc(C)s4)c(F)c3)c2cc1OC (stereo not drawn) [Example 101, N-{4-[(6,7-Dimethoxy-4-quinolyl)oxy]-2-fluorophenyl}-N′-[1-(5-methyl-1,3-thiazol-2-yl)ethyl]urea]	20.1
COc1cc2nccc(Oc3ccc(NC(=O)N[C@@H](C)c4nccs4)c(F)c3)c2cc1OC [Example 71, N-{4-[(6,7-Dimethoxy-4-quinolyl)oxy]-2-fluorophenyl}-N′-[(1S)-1-(1,3-thiazol-2-yl)ethyl]urea]	3
COc1cc2nccc(Oc3ccc(NC(=O)NC(C)c4nc(C)cs4)cc3F)c2cc1OC (stereo not drawn) [Example 89, N-{4-[(6,7-Dimethoxy-4-quinolyl)oxy]-3-fluorophenyl}-N′-[1-(4-methyl-1,3-thiazol-2-yl)ethyl]urea]	3.1
COc1cc2nccc(Oc3ccc(NC(=O)NC(C)c4nccs4)c(F)c3)c2cc1OC (stereo not drawn) [Example 70, N-{4-[(6,7-Dimethoxy-4-quinolyl)oxy]-2-fluorophenyl}-N′-[1-(1,3-thiazol-2-yl)ethyl]urea]	3.6
COc1cc(Oc2ccnc3cc(OC)c(OC)cc23)ccc1NC(=O)NC(C)c1nccs1 (stereo not drawn) [Example 74, N-{4-[(6,7-Dimethoxy-4-quinolyl)oxy]-2-methoxyphenyl}-N′-[1-(1,3-thiazol-2-yl)ethyl]urea]	5
COc1cc2nccc(Oc3ccc(NC(=O)N[C@H](C)c4nccs4)cc3OC)c2cc1OC [Example 82, N-{4-[(6,7-Dimethoxy-4-quinolyl)oxy]-3-methoxyphenyl}-N′-[(1R)-1-(1,3-thiazol-2-yl)ethyl]urea]	8.9
COc1cc2nccc(Oc3ccc(NC(=O)NC(C)c4nccs4)cc3F)c2cc1OC (stereo not drawn) [Example 73, N-{4-[(6,7-Dimethoxy-4-quinolyl)oxy]-3-fluorophenyl}-N′-[1-(1,3-thiazol-2-yl)ethyl]urea]	3
COc1cc2nccc(Oc3ccc(NC(=O)N[C@H](C)c4nccs4)cc3)c2cc1OC [Example 79, N-{4-[(6,7-Dimethoxy-4-quinolyl)oxy]phenyl}-N′-[(1R)-1-(1,3-thiazol-2-yl)ethyl]urea]	6.9

Second part, the molecule after the results:

IC50 [nM]	SMILES
6.1	COc1cc2nccc(Oc3ccc(NC(=O)NC(C)c4ccc(F)cc4)c(C)c3)c2cc1OC (stereo not drawn) [Example 13, N-{4-[(6,7-Dimethoxy-4-quinolyl)oxy]-2-methylphenyl}-N′-[1-(4-fluorophenyl)ethyl]urea]
16.3	COc1cc2nccc(Oc3ccc(NC(=O)N[C@@H](C)c4ccc(F)cc4)c(C)c3C)c2cc1OC [Example 26, N-{4-[(6,7-Dimethoxy-4-quinolyl)oxy]-2,3-dimethylphenyl}-N′-[(1S)-1-(4-fluorophenyl)ethyl]urea]
10.2	COc1cc2nccc(Oc3ccc(NC(=O)N[C@@H](C)c4ccc(F)cc4)cc3OC)c2cc1OC [Example 23, N-{4-[(6,7-Dimethoxy-4-quinolyl)oxy]-3-methoxyphenyl}-N′-[(1S)-1-(4-fluorophenyl)ethyl]urea]
21.9	COc1cc2nccc(Oc3ccc(NC(=O)NC(C)c4ccc(F)cc4)c(C)c3C)c2cc1OC (stereo not drawn) [Example 25, N-{4-[(6,7-Dimethoxy-4-quinolyl)oxy]-2,3-dimethylphenyl}-N′-[1-(4-fluorophenyl)ethyl]urea]
7.6	COc1cc2nccc(Oc3ccc(NC(=O)N[C@H](C)c4ccc(F)cc4)c(C)c3C)c2cc1OC [Example 27, N-{4-[(6,7-Dimethoxy-4-quinolyl)oxy]-2,3-dimethylphenyl}-N′-[(1R)-1-(4-fluorophenyl)ethyl]urea]
8.1	COc1cc2nccc(Oc3ccc(NC(=O)NC(C)c4ccc(F)cc4)c(C(F)(F)F)c3)c2cc1OC (stereo not drawn) [Example 19, N-[4-[(6,7-Dimethoxy-4-quinolyl)oxy]-2-(trifluoromethyl)phenyl]-N′-[1-(4-fluorophenyl)ethyl]urea]
115	COc1cc2nccc(Oc3ccc(NC(=O)N[C@H](C)c4cccc(Br)c4)c(C(F)(F)F)c3)c2cc1OC [Example 60, N-[(1R)-1-(3-Bromophenyl)ethyl]-N′-[4-[(6,7-dimethoxy-4-quinolyl)oxy]-2-(trifluoromethyl)phenyl]urea]
7.1	COc1cc2nccc(Oc3ccc(NC(=O)NC(C)c4ccc(F)cc4)cc3Cl)c2cc1OC (stereo not drawn) [Example 10, N-{3-Chloro-4-[(6,7-dimethoxy-4-quinolyl)oxy]phenyl}-N′-[1-(4-fluorophenyl)ethyl]urea]
12.9	COc1cc2nccc(Oc3ccc(NC(=O)NC(C)c4ccc(F)cc4)cc3F)c2cc1OC (stereo not drawn) [Example 31, N-{4-[(6,7-Dimethoxy-4-quinolyl)oxy]-3-fluorophenyl}-N′-[1-(4-fluorophenyl)ethyl]urea]
11.7	COc1cc2nccc(Oc3ccc(NC(=O)N[C@@H](C)c4ccc(F)cc4)cc3Cl)c2cc1OC [Example 11, N-{3-Chloro-4-[(6,7-dimethoxy-4-quinolyl)oxy]phenyl}-N′-[(1S)-1-(4-fluorophenyl)ethyl]urea]
17.4	COc1cc2nccc(Oc3cc(C)c(NC(=O)N[C@H](C)c4ccc(F)cc4)cc3C)c2cc1OC [Example 9, N-{4-[(6,7-Dimethoxy-4-quinolyl)oxy]-2,5-dimethylphenyl}-N′-[(1R)-1-(4-fluorophenyl)ethyl]urea]
80.9	COc1cc2nccc(Oc3ccc(NC(=O)N[C@H](C)c4cccc(Br)c4)c(C)c3)c2cc1OC [Example 58, N-[(1R)-1-(3-Bromophenyl)ethyl]-N′-{4-[(6,7-dimethoxy-4-quinolyl)oxy]-2-methylphenyl}urea]
3.1	COc1cc2nccc(Oc3ccc(NC(=O)N[C@H](C)c4ccc(F)cc4)c(F)c3)c2cc1OC [Example 30, N-{4-[(6,7-Dimethoxy-4-quinolyl)oxy]-2-fluorophenyl}-N′-[(1R)-1-(4-fluorophenyl)ethyl]urea]
6.5	COc1cc2nccc(Oc3ccc(NC(=O)NC(C)c4ccc(F)cc4)c(F)c3)c2cc1OC (stereo not drawn) [Example 28, N-{4-[(6,7-Dimethoxy-4-quinolyl)oxy]-2-fluorophenyl}-N′-[1-(4-fluorophenyl)ethyl]urea]
193	COc1cc2nccc(Oc3cc(C)c(NC(=O)N[C@H](C)c4cccc(Br)c4)cc3C)c2cc1OC [Example 56, N-[(1R)-1-(3-Bromophenyl)ethyl]-N′-{4-[(6,7-dimethoxy-4-quinolyl)oxy]-2,5-dimethylphenyl}urea]
3.5	COc1cc2nccc(Oc3ccc(NC(=O)N[C@@H](C)c4ccc(F)cc4)cc3F)c2cc1OC [Example 32, N-{4-[(6,7-Dimethoxy-4-quinolyl)oxy]-3-fluorophenyl}-N′-[(1S)-1-(4-fluorophenyl)ethyl]urea]
